In patent publication US9446039B2, “Aminoheteroaryl compounds as MTH1 inhibitors” (CEMM—FORSCHUNGSZENTRUM FÜR MOLEKULARE MEDIZIN GMBH, priority 2012, dated 2016):

Experiments:
Format in all cases: binding
[1] = target: SW480 colon carcinoma cells lysate proteins (Homo sapiens, UniProt O15372); conditions: PreyGene EIF3H
[2] = target: T1, SW480 colon carcinoma cells lysate proteins (Homo sapiens, UniProt P06454); conditions: PreyGene PTMA
T1 sequence (P06454 1-111): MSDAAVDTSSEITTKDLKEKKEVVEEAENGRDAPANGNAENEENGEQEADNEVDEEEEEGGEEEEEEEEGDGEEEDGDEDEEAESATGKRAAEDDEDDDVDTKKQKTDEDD

[3] = target: SW480 colon carcinoma cells lysate proteins (Homo sapiens, UniProt P14625); conditions: PreyGene HSP90B1
[4] = target: SW480 colon carcinoma cells lysate proteins (Homo sapiens, UniProt P17980); conditions: PreyGene PSMC3
[5] = target: T2, SW480 colon carcinoma cells lysate proteins (Homo sapiens, UniProt P30041); conditions: PreyGene PRDX6
T2 sequence (P30041 1-224): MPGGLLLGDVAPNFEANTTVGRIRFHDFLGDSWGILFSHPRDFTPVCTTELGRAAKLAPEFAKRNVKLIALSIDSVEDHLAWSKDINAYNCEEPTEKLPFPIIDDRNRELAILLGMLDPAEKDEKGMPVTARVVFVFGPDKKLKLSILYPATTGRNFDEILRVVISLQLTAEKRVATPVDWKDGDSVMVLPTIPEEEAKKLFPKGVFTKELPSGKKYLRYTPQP

[6] = target: SW480 colon carcinoma cells lysate proteins (Homo sapiens, UniProt P31939); conditions: PreyGene ATIC
[7] = target: T3, SW480 colon carcinoma cells lysate proteins (Homo sapiens, UniProt P78371); conditions: PreyGene CCT2; SW480 cells
T3 sequence (P78371 1-535): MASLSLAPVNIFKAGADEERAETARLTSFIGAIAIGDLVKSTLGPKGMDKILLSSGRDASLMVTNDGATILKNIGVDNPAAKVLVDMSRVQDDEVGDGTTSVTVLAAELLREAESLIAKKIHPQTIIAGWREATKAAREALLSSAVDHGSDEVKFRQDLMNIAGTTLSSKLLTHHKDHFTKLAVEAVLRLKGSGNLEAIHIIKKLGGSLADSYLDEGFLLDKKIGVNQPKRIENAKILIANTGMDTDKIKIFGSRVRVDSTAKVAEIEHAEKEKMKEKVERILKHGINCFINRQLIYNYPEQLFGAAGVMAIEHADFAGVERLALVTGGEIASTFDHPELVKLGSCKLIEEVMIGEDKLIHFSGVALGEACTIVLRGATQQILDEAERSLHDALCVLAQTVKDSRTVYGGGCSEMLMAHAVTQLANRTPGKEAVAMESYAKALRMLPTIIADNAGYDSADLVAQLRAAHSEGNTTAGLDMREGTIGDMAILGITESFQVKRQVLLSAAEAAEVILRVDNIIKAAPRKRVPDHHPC

[8] = target: SW480 colon carcinoma cells lysate proteins (Homo sapiens, UniProt P99999); conditions: PreyGene CYCS
[9] = target: SW480 colon carcinoma cells lysate proteins (Homo sapiens, UniProt Q01105); conditions: PreyGene SET
[10] = target: T4, SW480 colon carcinoma cells lysate proteins (Homo sapiens, UniProt Q8NFT6); conditions: PreyGene DBF4B
T4 sequence (Q8NFT6 1-615): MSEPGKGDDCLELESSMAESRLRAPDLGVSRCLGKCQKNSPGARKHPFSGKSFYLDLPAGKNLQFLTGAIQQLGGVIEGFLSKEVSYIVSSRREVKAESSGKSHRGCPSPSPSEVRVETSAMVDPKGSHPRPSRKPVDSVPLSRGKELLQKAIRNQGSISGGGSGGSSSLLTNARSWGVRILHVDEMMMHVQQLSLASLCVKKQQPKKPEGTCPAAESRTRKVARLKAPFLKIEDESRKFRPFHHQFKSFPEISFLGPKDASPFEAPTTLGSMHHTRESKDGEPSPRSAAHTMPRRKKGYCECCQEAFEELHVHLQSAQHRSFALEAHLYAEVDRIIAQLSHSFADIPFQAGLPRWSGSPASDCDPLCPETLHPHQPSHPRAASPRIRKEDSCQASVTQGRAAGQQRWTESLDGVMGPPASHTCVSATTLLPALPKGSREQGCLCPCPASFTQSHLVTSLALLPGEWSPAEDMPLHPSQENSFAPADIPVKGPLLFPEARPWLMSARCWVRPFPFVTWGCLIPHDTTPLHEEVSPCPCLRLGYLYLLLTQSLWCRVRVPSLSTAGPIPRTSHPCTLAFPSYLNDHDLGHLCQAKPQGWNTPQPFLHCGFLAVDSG

SW480 colon carcinoma cells lysate proteins (Homo sapiens, UniProt P31939), sequence (P31939 whole entry): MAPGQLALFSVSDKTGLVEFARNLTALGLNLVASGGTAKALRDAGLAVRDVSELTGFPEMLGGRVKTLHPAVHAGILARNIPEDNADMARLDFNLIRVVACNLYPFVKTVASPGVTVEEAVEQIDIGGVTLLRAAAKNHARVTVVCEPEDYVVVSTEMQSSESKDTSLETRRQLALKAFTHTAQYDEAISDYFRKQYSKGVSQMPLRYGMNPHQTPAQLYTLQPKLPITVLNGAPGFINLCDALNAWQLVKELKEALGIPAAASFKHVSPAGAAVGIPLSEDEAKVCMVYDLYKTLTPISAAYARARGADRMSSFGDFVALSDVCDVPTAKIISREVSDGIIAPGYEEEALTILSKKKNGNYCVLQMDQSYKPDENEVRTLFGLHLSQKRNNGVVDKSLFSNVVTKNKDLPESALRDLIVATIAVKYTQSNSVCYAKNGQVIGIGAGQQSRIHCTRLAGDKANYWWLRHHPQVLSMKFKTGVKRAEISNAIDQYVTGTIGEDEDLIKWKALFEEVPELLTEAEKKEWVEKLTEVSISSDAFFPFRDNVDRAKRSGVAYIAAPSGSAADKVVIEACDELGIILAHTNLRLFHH
SW480 colon carcinoma cells lysate proteins (Homo sapiens, UniProt P99999), sequence (P99999 whole entry): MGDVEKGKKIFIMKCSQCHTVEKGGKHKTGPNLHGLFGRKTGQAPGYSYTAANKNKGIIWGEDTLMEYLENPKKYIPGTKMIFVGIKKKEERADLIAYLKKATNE
SW480 colon carcinoma cells lysate proteins (Homo sapiens, UniProt Q01105), sequence (Q01105 whole entry): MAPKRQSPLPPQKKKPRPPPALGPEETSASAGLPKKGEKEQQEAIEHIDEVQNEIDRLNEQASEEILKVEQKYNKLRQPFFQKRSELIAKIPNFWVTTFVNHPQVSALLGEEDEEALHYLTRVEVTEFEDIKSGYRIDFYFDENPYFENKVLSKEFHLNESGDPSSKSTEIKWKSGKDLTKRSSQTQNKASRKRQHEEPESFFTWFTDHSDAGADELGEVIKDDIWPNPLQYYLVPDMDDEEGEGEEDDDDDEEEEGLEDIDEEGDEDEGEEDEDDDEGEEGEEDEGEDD
SW480 colon carcinoma cells lysate proteins (Homo sapiens, UniProt P17980), sequence (P17980 whole entry): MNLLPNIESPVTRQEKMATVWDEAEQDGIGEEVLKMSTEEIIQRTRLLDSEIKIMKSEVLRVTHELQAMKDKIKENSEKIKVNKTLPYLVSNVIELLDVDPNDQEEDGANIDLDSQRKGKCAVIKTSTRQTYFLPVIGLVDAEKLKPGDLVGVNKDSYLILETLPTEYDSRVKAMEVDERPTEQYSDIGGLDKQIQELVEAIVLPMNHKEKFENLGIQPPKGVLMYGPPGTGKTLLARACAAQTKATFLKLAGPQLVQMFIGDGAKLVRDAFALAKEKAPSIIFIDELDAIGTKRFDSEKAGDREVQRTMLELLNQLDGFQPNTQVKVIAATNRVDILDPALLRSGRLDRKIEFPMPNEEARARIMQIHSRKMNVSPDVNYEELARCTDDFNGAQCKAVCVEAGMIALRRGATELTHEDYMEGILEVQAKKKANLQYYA
SW480 colon carcinoma cells lysate proteins (Homo sapiens, UniProt O15372), sequence (O15372 whole entry): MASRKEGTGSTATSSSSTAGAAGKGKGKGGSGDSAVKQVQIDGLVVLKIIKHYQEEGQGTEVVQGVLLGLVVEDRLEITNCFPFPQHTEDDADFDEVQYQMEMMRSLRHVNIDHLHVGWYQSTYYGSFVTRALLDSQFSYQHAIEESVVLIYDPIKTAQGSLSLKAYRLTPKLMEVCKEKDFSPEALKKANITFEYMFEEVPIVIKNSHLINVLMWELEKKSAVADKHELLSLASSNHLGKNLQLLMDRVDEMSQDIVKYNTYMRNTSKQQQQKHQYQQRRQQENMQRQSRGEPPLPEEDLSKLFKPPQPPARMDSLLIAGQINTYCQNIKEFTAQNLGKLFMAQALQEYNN
SW480 colon carcinoma cells lysate proteins (Homo sapiens, UniProt P14625), sequence (P14625 22-803): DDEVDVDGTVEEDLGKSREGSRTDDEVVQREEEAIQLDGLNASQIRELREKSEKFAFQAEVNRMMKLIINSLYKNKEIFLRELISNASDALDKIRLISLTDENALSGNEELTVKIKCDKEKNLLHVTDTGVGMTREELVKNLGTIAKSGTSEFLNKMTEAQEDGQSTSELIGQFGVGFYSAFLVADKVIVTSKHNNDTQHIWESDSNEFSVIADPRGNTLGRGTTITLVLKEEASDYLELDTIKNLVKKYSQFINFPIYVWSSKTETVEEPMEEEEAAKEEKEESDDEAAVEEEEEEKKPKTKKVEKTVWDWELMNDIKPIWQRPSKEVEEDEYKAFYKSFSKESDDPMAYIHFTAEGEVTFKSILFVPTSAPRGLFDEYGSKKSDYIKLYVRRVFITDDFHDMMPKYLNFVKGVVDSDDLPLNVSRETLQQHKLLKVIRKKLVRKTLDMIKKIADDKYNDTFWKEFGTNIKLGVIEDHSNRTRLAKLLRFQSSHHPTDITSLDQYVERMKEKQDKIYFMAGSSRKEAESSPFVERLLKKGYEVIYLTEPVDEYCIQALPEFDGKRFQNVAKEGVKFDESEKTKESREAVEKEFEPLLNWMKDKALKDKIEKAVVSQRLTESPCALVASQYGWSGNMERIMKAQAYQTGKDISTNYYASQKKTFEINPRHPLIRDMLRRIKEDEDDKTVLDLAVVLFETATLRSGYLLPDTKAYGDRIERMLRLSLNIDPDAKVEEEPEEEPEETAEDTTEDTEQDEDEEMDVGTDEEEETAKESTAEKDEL

Compound: C[C@H](Oc1cc(-c2cnn(C3CCNCC3)c2)cnc1N)c1c(Cl)ccc(F)c1Cl [(5)-crizotinib]
- AvgP [1]: 0.2043
- SC.Exp. 1-1 [1]: 3
- SC.Exp. 1-2 [1]: 0
- SC.Exp. 2-1 [1]: 0
- SC.Exp. 2-2 [1]: 0
- Sum (SC.Exp.) [1]: 3
- AvgP [2]: 0.3707
- SC.Exp. 1-1 [2]: 2
- SC.Exp. 1-2 [2]: 2
- SC.Exp. 2-1 [2]: 0
- SC.Exp. 2-2 [2]: 0
- Sum (SC.Exp.) [2]: 4
- AvgP [3]: 0.228
- SC.Exp. 1-1 [3]: 13
- SC.Exp. 1-2 [3]: 8
- SC.Exp. 2-1 [3]: 0
- SC.Exp. 2-2 [3]: 0
- Sum (SC.Exp.) [3]: 21
- AvgP [4]: 0.4297
- SC.Exp. 1-1 [4]: 3
- SC.Exp. 1-2 [4]: 3
- SC.Exp. 2-1 [4]: 0
- SC.Exp. 2-2 [4]: 0
- Sum (SC.Exp.) [4]: 6
- AvgP [5]: 0.1992
- SC.Exp. 1-1 [5]: 8
- SC.Exp. 1-2 [5]: 8
- SC.Exp. 2-1 [5]: 0
- SC.Exp. 2-2 [5]: 0
- Sum (SC.Exp.) [5]: 16
- AvgP [6]: 0.4369
- SC.Exp. 1-1 [6]: 3
- SC.Exp. 1-2 [6]: 4
- SC.Exp. 2-1 [6]: 0
- SC.Exp. 2-2 [6]: 0
- Sum (SC.Exp.) [6]: 7
- AvgP [7]: 0
- SC.Exp. 1-1 [7]: 9
- SC.Exp. 1-2 [7]: 11
- SC.Exp. 2-1 [7]: 3
- SC.Exp. 2-2 [7]: 3
- SC.Exp. Sum [7]: 26
- AvgP [8]: 0.391
- SC.Exp. 1-1 [8]: 2
- SC.Exp. 1-2 [8]: 3
- SC.Exp. 2-1 [8]: 0
- SC.Exp. 2-2 [8]: 0
- Sum (SC.Exp.) [8]: 5
- AvgP [9]: 0.4696
- SC.Exp. 1-1 [9]: 3
- SC.Exp. 1-2 [9]: 3
- SC.Exp. 2-1 [9]: 4
- SC.Exp. 2-2 [9]: 3
- Sum (SC.Exp.) [9]: 13
- AvgP [10]: 0.2
- SC.Exp. 1-1 [10]: 0
- SC.Exp. 1-2 [10]: 0
- SC.Exp. 2-1 [10]: 2
- SC.Exp. 2-2 [10]: 0
- Sum (SC.Exp.) [10]: 2
